{
  "source": "patent US6784201B2",
  "about": "“Benzothiepines having activity as inhibitors of ileal bile acid transport and taurocholate uptake” (G.D. Searle & Company, priority 1994, dated 2004)",
  "key": {"ACAT": {"target": "ACAT", "test": "Acyl-CoA; cholesterol acyl transferase (ACAT), hamster liver microsomes", "format": "biochemical", "conditions": "read-out: ACAT (liver) IC(50)", "procedure": "Acyl-CoA; Cholesterol Acyl Transferase (ACAT)\nHamster liver and rat intestinal microsomes were prepared from tissue as described previously (Reference: (1980) J. Biol. Chem. 255, 9098) and used as a source of ACAT enzyme. The assay consisted of a 2.0 ml incubation containing 24 μM Oleoyl-CoA (0.05 μCi) in a 50 mM sodium phosphate, 2 mM DTT ph 7.4 buffer containing 0.25% BSA and 200 μg of microsomal protein. The assay was initiated by the addition of oleoyl-CoA. The reaction went for 5 min at 37° C. and was terminated by the addition of 8.0 ml of chloroform/methanol (2:1). […] The chloroform phase was taken to dryness and then spotted on a silica gel 60 TLC plate and developed in hexane/ethyl ether (9:1). The amount of cholesterol ester formed was determined by measuring the amount of radioactivity incorporated into the cholesterol oleate spot on the TLC plate with a Packard instaimager."}, "[1]": {"test": "Efficacy in cholesterol-fed hamsters: body, liver and fecal weight", "format": "in vivo, hamster", "conditions": "0.2% Cpd. No. 25, mean (SEM)"}, "[2]": {"tested_on": "Hepatic Cholesterol 7-α-Hydroxylase", "test": "Hepatic cholesterol 7-α-hydroxylase activity, cholesterol-fed hamsters", "format": "in vivo, hamster", "conditions": "0.2% Cpd. No. 25, mean (SEM)", "procedure": "Measurement of Hepatic Cholesterol 7-α-Hydroxylase Activity (7a-OHase)\nHepatic microsomes were prepared by homogenizing liver samples in a phosphate/sucrose buffer, followed by centrifugal separation. The final pelleted material was resuspended in buffer and an aliquot was assayed for cholesterol 7-α-hydroxylase activity by incubating for 5 minutes at 37° C. in the presence of NADPH. Following extraction into petroleum ether, the organic solvent was evaporated and the residue was dissolved in acetonitrile/methanol. The enzymatic product was separated by injecting an aliquot of the extract onto a C18 reversed phase HPLC column and quantitating the eluted material using UV detection at 240 nm. (Reference: Horton, J. D., et al. (1994) J. Clin. Invest. 93, 2084)."}, "Serum Cholesterol": {"tested_on": "Serum Cholesterol", "test": "Determination of serum cholesterol, rat Alzet minipump model", "format": "in vivo", "conditions": "20 MPL/DAY, mean (SEM)", "procedure": "Determination of Serum Cholesterol (SER.CHOL, HDL-CHOL, TGI and VLDL+LDL)\nTotal serum cholesterol (SER.CHOL) was measured enzymatically using a commercial kit from Wako Fine Chemicals (Richmond, Va.); Cholesterol C11, Catalog No. 276-64909. HDL cholesterol (HDL-CHOL) was assayed using this same kit after precipitation of VLDL and LDL with Sigma Chemical Co. HDL Cholesterol reagent, Catalog No. 352-3 (dextran sulfate method). Total serum triglycerides (blanked) (TGI) were assayed enzymatically with Sigma Chemical Co. GPO-Trinder, Catalog No. 337-B. VLDL and LDL (VLDL+LDL) cholesterol concentrations were calculated as the difference between total and HDL cholesterol."}},
  "data": [
    {"smiles": "CCCC[C@]1(CC)CS(=O)(=O)c2cc(OC)ccc2[C@@H](c2ccccc2)[C@H]1O", "note": "[Example 25, (3α,4β,5β) 3-Butyl-3-ethyl-4-hydroxy-8-methoxy-5-phenyl-2,3,4,5-tetrahydrobenzothiepine-1,1-dioxide]", "values": [
      {"measurement": "IC50", "setting": "ACAT", "result": 8, "unit": "µM"},
      {"measurement": "LIVER WEIGHT (G)", "setting": "[1]", "result": "5.8 (0.2) G"},
      {"measurement": "WEIGHT (G) day 1", "setting": "[1]", "result": "117 (5) G"},
      {"measurement": "WEIGHT (G) day 14", "setting": "[1]", "result": "132 (4) G"},
      {"measurement": "7a-OHase (pm/mg/min.)", "setting": "[2]", "result": "291.0 (6.0) *A pm/mg/min."},
      {"measurement": "SER.CHOL (mg %)", "setting": "Serum Cholesterol", "result": "84 (3) mg %"}
    ]}
  ]
}
